Reference: the SangsterLogP compilation

Row | SMILES | logP
1 | Cc1ccc(C(=O)O)cc1 | 2.43
2 | O=C(O)c1cccc(F)c1 | 2.05
3 | O=C(O)c1ccccc1Nc1cccc([N+](=O)[O-])c1 | 4.42
4 | Oc1cccc(C(F)(F)F)c1 | 2.61
5 | O=C(O)c1cccc(Br)c1 | 2.83
6 | N#Cc1ccc(C(=O)O)cc1 | 1.55
7 | Cc1cccc(Nc2ccccc2C(=O)O)c1 | 4.74
8 | CC(=O)Oc1cccc(O)c1 | 1.26
9 | O=C(c1ccccc1)c1ccc(O)cc1 | 2.91

The next lines start with the values.

Row | logP | SMILES
10 | 1.88 | O=C1CCC(=O)N1c1cc(Cl)cc(Cl)c1
11 | 1.52 | CCCc1cccc(N2C(=O)CCC2=O)c1
12 | 1.16 | Cc1cc(C)cc(N2C(=O)CCC2=O)c1
13 | 2.25 | O=C1CCC(=O)N1c1cc(C(F)(F)F)cc(C(F)(F)F)c1
14 | 2.92 | O=C1CCC(=O)N1c1cc(Cl)c(Cl)c(Cl)c1
15 | 1.3 | O=C1CCC(=O)N1c1ccc(C(F)(F)F)cc1
16 | 1.35 | O=C1CC(c2cccc(C(F)(F)F)c2)C(=O)N1 (stereo not drawn)
17 | 2.44 | O=C1CCC(=O)N1c1cc(Cl)cc(Cl)c1Cl
18 | 2.12 | O=C1CCC(=O)N1c1cc(Br)cc(Br)c1
